The supplement of paper PMC10307832

What was measured:
Assay in all cases: relative viability (nuclei count vs DMSO), 5 days (fraction); higher = more cells survive
NCI-H3122 = tested on: NCI-H3122
In short: (§1)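 For relative viability, nuclei counts in treated wells were divided by those in vehicle wells. Lung cancer cell lines had been pin-tool dosed in 1536-well plates the day after seeding and cultured for 5 days, then fixed and stained in one step (final 0.05% Triton X-100, 1% formaldehyde, 1 ug/ml Hoechst) and imaged at 4×. Doses were one drug alone or a fixed anchor-drug dose plus five library-drug doses (not always all listed) in √10 steps, and values are duplicate-plate medians.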

201T = tested on: 201T
In short: as §1

NCI-H1734 = tested on: NCI-H1734
In short: as §1

NCI-H1944 = tested on: NCI-H1944
In short: as §1

LXF-289 = tested on: LXF-289
In short: as §1

NCI-H1755 = tested on: NCI-H1755
In short: as §1

LC-2-ad = tested on: LC-2-ad
In short: as §1

EKVX = tested on: EKVX
In short: as §1

NCI-H1975 = tested on: NCI-H1975
In short: as §1

COR-L 105 = tested on: COR-L 105
In short: as §1

NCI-H1993 = tested on: NCI-H1993
In short: as §1

NCI-H596 = tested on: NCI-H596
In short: as §1

LU99A = tested on: LU99A
In short: as §1

HCC-15 = tested on: HCC-15
In short: as §1

COR-L23 = tested on: COR-L23
In short: as §1

HCC-366 = tested on: HCC-366
In short: as §1

RERF-LC-KJ = tested on: RERF-LC-KJ
In short: as §1

HCC-78 = tested on: HCC-78
In short: as §1

NCI-H1650 = tested on: NCI-H1650
In short: as §1

BEN = tested on: BEN
In short: as §1

HARA = tested on: HARA
In short: as §1

HCC-827 = tested on: HCC-827
In short: as §1

SK-LU-1 = tested on: SK-LU-1
In short: as §1

O=C(O)CCCCC(CCSCc1ccccc1)SCc1ccccc1 (centres undefined) [CPI-613] + Cc1cc(Nc2cc(N3CCN(C)CC3)nc(Sc3ccc(NC(=O)C4CC4)cc3)n2)n[nH]1 [Tozasertib] (partner 0.1 µM)
relative viability (NCI-H3122; first compound 5 µM): 0.357 | relative viability (NCI-H3122; first compound 15.81 µM): 0.363 | relative viability (NCI-H3122; first compound 50 µM): 0.348 | relative viability (NCI-H3122; first compound 158.11 µM): 0.211 | relative viability (NCI-H3122; first compound 500 µM): 0.0108 | relative viability (201T; first compound 5 µM): 0.913 | relative viability (201T; first compound 15.81 µM): 0.846 | relative viability (201T; first compound 50 µM): 0.8 | relative viability (201T; first compound 158.11 µM): 0.443 | relative viability (201T; first compound 500 µM): 0.209 | relative viability (NCI-H1734; first compound 5 µM): 0.235 | relative viability (NCI-H1734; first compound 15.81 µM): 0.24 | relative viability (NCI-H1734; first compound 50 µM): 0.291 | relative viability (NCI-H1734; first compound 158.11 µM): 0.152 | relative viability (NCI-H1734; first compound 500 µM): 0.118 | relative viability (NCI-H1944; first compound 5 µM): 0.264 | relative viability (NCI-H1944; first compound 15.81 µM): 0.233 | relative viability (NCI-H1944; first compound 50 µM): 0.268 | relative viability (NCI-H1944; first compound 158.11 µM): 0.195 | relative viability (NCI-H1944; first compound 500 µM): 0.127 | relative viability (LXF-289; first compound 5 µM): 0.178 | relative viability (LXF-289; first compound 15.81 µM): 0.142 | relative viability (LXF-289; first compound 50 µM): 0.176 | relative viability (LXF-289; first compound 158.11 µM): 0.0521 | relative viability (LXF-289; first compound 500 µM): 0.0406 | relative viability (NCI-H1755; first compound 5 µM): 0.558 | relative viability (NCI-H1755; first compound 15.81 µM): 0.52 | relative viability (NCI-H1755; first compound 50 µM): 0.581 | relative viability (NCI-H1755; first compound 158.11 µM): 0.402 | relative viability (NCI-H1755; first compound 500 µM): 0.356 | relative viability (LC-2-ad; first compound 5 µM): 0.45 | relative viability (LC-2-ad; first compound 15.81 µM): 0.398 | relative viability (LC-2-ad; first compound 50 µM): 0.459 | relative viability (LC-2-ad; first compound 158.11 µM): 0.267 | relative viability (LC-2-ad; first compound 500 µM): 0.0577 | relative viability (EKVX; first compound 5 µM): 0.384 | relative viability (EKVX; first compound 15.81 µM): 0.401 | relative viability (EKVX; first compound 50 µM): 0.366 | relative viability (EKVX; first compound 158.11 µM): 0.368 | relative viability (EKVX; first compound 500 µM): 0.41 | relative viability (NCI-H1975; first compound 5 µM): 0.7 | relative viability (NCI-H1975; first compound 15.81 µM): 0.639 | relative viability (NCI-H1975; first compound 50 µM): 0.676 | relative viability (NCI-H1975; first compound 158.11 µM): 0.324 | relative viability (NCI-H1975; first compound 500 µM): 0.233 | relative viability (COR-L 105; first compound 5 µM): 0.288 | relative viability (COR-L 105; first compound 15.81 µM): 0.348 | relative viability (COR-L 105; first compound 50 µM): 0.321 | relative viability (COR-L 105; first compound 158.11 µM): 0.321 | relative viability (COR-L 105; first compound 500 µM): 0.137 | relative viability (NCI-H1993; first compound 5 µM): 0.631 | relative viability (NCI-H1993; first compound 15.81 µM): 0.669 | relative viability (NCI-H1993; first compound 50 µM): 0.559 | relative viability (NCI-H1993; first compound 158.11 µM): 0.507 | relative viability (NCI-H1993; first compound 500 µM): 0.426 | relative viability (NCI-H596; first compound 5 µM): 1.08 | relative viability (NCI-H596; first compound 15.81 µM): 0.923 | relative viability (NCI-H596; first compound 50 µM): 0.966 | relative viability (NCI-H596; first compound 158.11 µM): 0.595 | relative viability (NCI-H596; first compound 500 µM): 0.0638 | relative viability (LU99A; first compound 5 µM): 0.299 | relative viability (LU99A; first compound 15.81 µM): 0.298 | relative viability (LU99A; first compound 50 µM): 0.293 | relative viability (LU99A; first compound 158.11 µM): 0.343 | relative viability (LU99A; first compound 500 µM): 0.34 | relative viability (HCC-15; first compound 5 µM): 0.514 | relative viability (HCC-15; first compound 15.81 µM): 0.367 | relative viability (HCC-15; first compound 50 µM): 0.369 | relative viability (HCC-15; first compound 158.11 µM): 0.29 | relative viability (HCC-15; first compound 500 µM): 0.112 | relative viability (COR-L23; first compound 5 µM): 0.208 | relative viability (COR-L23; first compound 15.81 µM): 0.145 | relative viability (COR-L23; first compound 50 µM): 0.192 | relative viability (COR-L23; first compound 158.11 µM): 0.11 | relative viability (COR-L23; first compound 500 µM): 0.0434 | relative viability (HCC-366; first compound 5 µM): 0.0925 | relative viability (HCC-366; first compound 15.81 µM): 0.33 | relative viability (HCC-366; first compound 50 µM): 0.156 | relative viability (HCC-366; first compound 158.11 µM): 0.0259 | relative viability (HCC-366; first compound 500 µM): 0.0032 | relative viability (RERF-LC-KJ; first compound 5 µM): 0.536 | relative viability (RERF-LC-KJ; first compound 15.81 µM): 0.513 | relative viability (RERF-LC-KJ; first compound 50 µM): 0.454 | relative viability (RERF-LC-KJ; first compound 158.11 µM): 0.188 | relative viability (RERF-LC-KJ; first compound 500 µM): 0.0899 | relative viability (HCC-78; first compound 5 µM): 0.46 | relative viability (HCC-78; first compound 15.81 µM): 0.402 | relative viability (HCC-78; first compound 50 µM): 0.408 | relative viability (HCC-78; first compound 158.11 µM): 0.433 | relative viability (HCC-78; first compound 500 µM): 0.405 | relative viability (NCI-H1650; first compound 5 µM): 0.441 | relative viability (NCI-H1650; first compound 15.81 µM): 0.321 | relative viability (NCI-H1650; first compound 50 µM): 0.417 | relative viability (NCI-H1650; first compound 158.11 µM): 0.0645 | relative viability (NCI-H1650; first compound 500 µM): 0.0151 | relative viability (BEN; first compound 5 µM): 0.532 | relative viability (BEN; first compound 15.81 µM): 0.47 | relative viability (BEN; first compound 50 µM): 0.495 | relative viability (BEN; first compound 158.11 µM): 0.535 | relative viability (BEN; first compound 500 µM): 0.408 | relative viability (HARA; first compound 15.81 µM): 0.117 | relative viability (HARA; first compound 50 µM): 0.0973 | relative viability (HARA; first compound 158.11 µM): 0.0946 | relative viability (HARA; first compound 500 µM): 0.0096 | relative viability (HCC-827; first compound 5 µM): 0.451 | relative viability (HCC-827; first compound 15.81 µM): 0.388 | relative viability (HCC-827; first compound 50 µM): 0.409 | relative viability (HCC-827; first compound 158.11 µM): 0.375 | relative viability (HCC-827; first compound 500 µM): 0.292 | relative viability (SK-LU-1; first compound 5 µM): 0.321 | relative viability (SK-LU-1; first compound 15.81 µM): 0.244 | relative viability (SK-LU-1; first compound 50 µM): 0.299 | relative viability (SK-LU-1; first compound 158.11 µM): 0.25 | relative viability (SK-LU-1; first compound 500 µM): 0.195
